Reference: PMC6968383, “Design, synthesis, in vitro and in vivo evaluation of benzylpiperidine-linked 1,3-dimethylbenzimidazolinones as cholinesterase inhibitors against Alzheimer’s disease” (Journal of Enzyme Inhibition and Medicinal Chemistry, 2019)
Like-named read-outs stand apart in the source and are kept apart here.

Experiments:
[1] = target: T1, BChE (EC 3.1.1.8) from horse serum (Equus caballus, UniProt P81908); experiment: biochemical; settings: for inhibition at 100 µM: compound at 100 μM, read-out: BChE IR (inhibitory rate)
T1 construct: horse serum BChE (eqBChE, Sigma-Aldrich); purchased Sigma-Aldrich; host or cells: horse serum
Method: (§1) The data were expressed as IC50 values (Table 1).
(§2) The inhibitory activities of the target compounds towards AChE (from Electrophorus electricus (electric eeAChE, Sigma-Aldrich) and horse serum BChE (eqBChE, Sigma-Aldrich) or human AChE – huAChE; human BuChE – huBuChE (huAChE, huBuChE, Sigma-Aldrich) were measured by Ellman’s method. In 96-well plates, a mixture of phosphate buffer (0.1 M, pH 8.0, […]), 5,5′-dithiobis-2-nitrobenzoic acid (DTNB, 60 µL), acetylcholinestrase or butyrylcholinesterase (20 µL, 5 IU/mL) and different concentration of the compound solution (30 µL) was pre-incubated for 5 min followed by the addition of the substrate (acetylthiocholine iodide or butyrylthiocholine iodide, 20 µL). […] The measurement of each concentration for each compound was detected in triplicate. GraphPad Prism 6.0 (GraphPad Software, Inc., La Jolla, CA) was used for data processing. The inhibition curve was fitted by plotting percentage enzyme activity (100% for the reference) versus the logarithm of the concentration of tested compound. The half-maximal inhibitory concentration (IC50) values were calculated according to the inhibition curve and the data were shown in the layout of mean ± SEM by GraphPad Prism 6.0.

[2] = target: T2, AChE (EC 3.1.1.7) from electric eel (Electrophorus electricus, UniProt O42275); experiment: biochemical; type: biochemical; settings: for inhibition at 100 µM: read-out: AChE IR (inhibitory rate); for SI (selectivity index = AChE IC50/BChE IC50): eeAChE IC50 / eqBChE IC50
T2 construct: purchased Sigma-Aldrich
Method: as §1, §2

[3] = eeAChE, mean ± SEM of triplicate independent experiments, read-out: AChE IC50
[4] = eqBChE, mean ± SEM of triplicate independent experiments, read-out: BChE IC50

T2 sequence (O42275 24-633): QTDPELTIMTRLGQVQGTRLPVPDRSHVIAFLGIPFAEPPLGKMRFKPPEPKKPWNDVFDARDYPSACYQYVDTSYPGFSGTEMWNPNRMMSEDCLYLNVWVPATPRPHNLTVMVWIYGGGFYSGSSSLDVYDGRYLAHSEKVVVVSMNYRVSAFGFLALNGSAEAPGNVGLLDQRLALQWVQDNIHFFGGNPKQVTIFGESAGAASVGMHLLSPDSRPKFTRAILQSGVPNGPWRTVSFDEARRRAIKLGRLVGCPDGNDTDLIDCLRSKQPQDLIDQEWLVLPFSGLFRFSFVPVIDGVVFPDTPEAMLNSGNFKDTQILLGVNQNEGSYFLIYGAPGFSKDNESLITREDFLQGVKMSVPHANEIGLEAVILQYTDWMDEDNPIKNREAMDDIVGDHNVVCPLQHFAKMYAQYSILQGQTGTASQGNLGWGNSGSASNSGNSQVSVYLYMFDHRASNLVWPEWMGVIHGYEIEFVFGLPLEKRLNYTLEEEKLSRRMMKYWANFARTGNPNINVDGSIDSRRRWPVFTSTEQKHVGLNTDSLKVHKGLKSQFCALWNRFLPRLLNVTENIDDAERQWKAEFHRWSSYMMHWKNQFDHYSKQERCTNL
T1 sequence (P81908 whole entry): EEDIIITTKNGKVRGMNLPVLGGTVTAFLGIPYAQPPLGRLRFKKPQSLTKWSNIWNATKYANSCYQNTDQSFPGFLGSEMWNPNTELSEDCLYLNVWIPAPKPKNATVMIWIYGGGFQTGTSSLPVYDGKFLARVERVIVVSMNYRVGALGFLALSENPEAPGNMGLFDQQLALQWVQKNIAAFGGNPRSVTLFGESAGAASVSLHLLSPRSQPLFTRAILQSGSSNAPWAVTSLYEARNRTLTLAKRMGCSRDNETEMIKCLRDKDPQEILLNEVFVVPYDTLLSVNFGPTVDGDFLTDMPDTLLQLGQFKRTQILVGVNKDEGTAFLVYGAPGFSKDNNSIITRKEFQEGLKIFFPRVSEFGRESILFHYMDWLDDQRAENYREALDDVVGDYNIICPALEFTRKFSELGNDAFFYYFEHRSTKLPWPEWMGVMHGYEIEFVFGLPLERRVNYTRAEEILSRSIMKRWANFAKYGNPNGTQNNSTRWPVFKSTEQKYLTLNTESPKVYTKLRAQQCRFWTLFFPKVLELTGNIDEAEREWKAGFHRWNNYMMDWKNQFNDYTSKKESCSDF

Q: For `Cn1c(=O)n(C)c2cc(C(=O)NCC3CCN(Cc4ccccc4)CC3)ccc21` [Compound 9a, N-((1-benzylpiperidin-4-yl)methyl)-1,3-dimethyl-2-oxo-2,3-dihydro-1H-benzo[d]imidazole-5-carboxamide], which inhibition at 100 µM ([1]; eqBChE) is on record?
A: 43.9%

Q: And the IC50 [2, 3]?
A: 3.14 ± 1.12 µM

Q: Which results are given for `Cc1ccccc1CN1CCC(CNC(=O)c2ccc3c(c2)n(C)c(=O)n3C)CC1` [Compound 9b, 1,3-dimethyl-N-((1–(2-methylbenzyl)piperidin-4-yl)methyl)-2-oxo-2,3-dihydro-1H-benzo[d]imidazole-5-carboxamide]?
A: inhibition at 100 µM ([1]; eqBChE): 41.4%; IC50 [2, 3]: 8.08 ± 2.66 µM

Q: How did the inhibition at 100 µM ([1]; eqBChE) turn out when `Cc1cccc(CN2CCC(CNC(=O)c3ccc4c(c3)n(C)c(=O)n4C)CC2)c1` [Compound 9c, 1,3-dimethyl-N-((1–(3-methylbenzyl)piperidin-4-yl)methyl)-2-oxo-2,3-dihydro-1H-benzo[d]imidazole-5-carboxamide] was run?
A: 44%

Q: What about the IC50 [2, 3] of the same compound?
A: 3.83 ± 2.04 µM

Q: For `Cc1ccc(CN2CCC(CNC(=O)c3ccc4c(c3)n(C)c(=O)n4C)CC2)cc1` [Compound 9d, 1,3-dimethyl-N-((1–(4-methylbenzyl)piperidin-4-yl)methyl)-2-oxo-2,3-dihydro-1H-benzo[d]imidazole-5-carboxamide], which inhibition at 100 µM ([1]; eqBChE) is on record?
A: 37.8%

Q: What about the IC50 [2, 3] of the same compound?
A: 25.7 ± 12.3 µM

Q: With `Cc1ccc(CN2CCC(CNC(=O)c3ccc4c(c3)n(C)c(=O)n4C)CC2)cc1C` [Compound 9e, N-((1–(3,4-dimethylbenzyl)piperidin-4-yl)methyl)-1,3-dimethyl-2-oxo-2,3-dihydro-1H-benzo[d]imidazole-5-carboxamide] as the compound, how does the inhibition at 100 µM ([1]; eqBChE) read?
A: 30.8%

Q: What about the IC50 [2, 3] of the same compound?
A: 9.97 ± 2.52 µM

Q: What does the source list for `COc1cccc(CN2CCC(CNC(=O)c3ccc4c(c3)n(C)c(=O)n4C)CC2)c1` [Compound 9f, N-((1–(3-methoxybenzyl)piperidin-4-yl)methyl)-1,3-dimethyl-2-oxo-2,3-dihydro-1H-benzo[d]imidazole-5-carboxamide]?
A: inhibition at 100 µM ([1]; eqBChE): 25%; inhibition at 100 µM [2]: 33.5%

Q: Which inhibition at 100 µM ([1]; eqBChE) does the source give for `COc1ccc(CN2CCC(CNC(=O)c3ccc4c(c3)n(C)c(=O)n4C)CC2)cc1` [Compound 9g, N-((1–(4-methoxybenzyl)piperidin-4-yl)methyl)-1,3-dimethyl-2-oxo-2,3-dihydro-1H-benzo[d]imidazole-5-carboxamide] here?
A: 41.5%

Q: What about the IC50 [2, 3] of the same compound?
A: 5.17 ± 2.25 µM

Q: What does the source list for `Cn1c(=O)n(C)c2cc(C(=O)NCC3CCN(Cc4ccccc4F)CC3)ccc21` [Compound 9h, N-((1–(2-fluorobenzyl)piperidin-4-yl)methyl)-1,3-dimethyl-2-oxo-2,3-dihydro-1H-benzo[d]imidazole-5-carboxamide]?
A: inhibition at 100 µM ([1]; eqBChE): 30%; IC50 [2, 3]: 16.2 ± 4.34 µM

Q: For `Cn1c(=O)n(C)c2cc(C(=O)NCC3CCN(Cc4cccc(F)c4)CC3)ccc21` [Compound 9i, N-((1–(3-fluorobenzyl)piperidin-4-yl)methyl)-1,3-dimethyl-2-oxo-2,3-dihydro-1H-benzo[d]imidazole-5-carboxamide], which IC50 [1, 4] is on record?
A: 95.1 ± 59.3 µM

Q: What about the IC50 [2, 3] of the same compound?
A: 2.93 ± 1.96 µM

Q: For `Cn1c(=O)n(C)c2cc(C(=O)NCC3CCN(Cc4ccc(F)cc4)CC3)ccc21` [Compound 9j, N-((1–(4-fluorobenzyl)piperidin-4-yl)methyl)-1,3-dimethyl-2-oxo-2,3-dihydro-1H-benzo[d]imidazole-5-carboxamide], which IC50 [1, 4] is on record?
A: 3.71 ± 1.88 µM

Q: What about the “SI (selectivity index = AChE IC50/BChE IC50)” value [2] of the same compound?
A: 1.27

Q: What about the IC50 [2, 3] of the same compound?
A: 4.7 ± 2.01 µM

Q: Which results are given for `Cn1c(=O)n(C)c2cc(C(=O)NCC3CCN(Cc4ccccc4Cl)CC3)ccc21` [Compound 9k, N-((1–(2-chlorobenzyl)piperidin-4-yl)methyl)-1,3-dimethyl-2-oxo-2,3-dihydro-1H-benzo[d]imidazole-5-carboxamide]?
A: inhibition at 100 µM ([1]; eqBChE): 46.5%; IC50 [2, 3]: 3.92 ± 1.2 µM

Q: For `Cn1c(=O)n(C)c2cc(C(=O)NCC3CCN(Cc4cccc(Cl)c4)CC3)ccc21` [Compound 9l, N-((1–(3-chlorobenzyl)piperidin-4-yl)methyl)-1,3-dimethyl-2-oxo-2,3-dihydro-1H-benzo[d]imidazole-5-carboxamide], which inhibition at 100 µM ([1]; eqBChE) is on record?
A: 36.9%

Q: What about the IC50 [2, 3] of the same compound?
A: 6 ± 3.31 µM

Q: How did the inhibition at 100 µM ([1]; eqBChE) turn out when `Cn1c(=O)n(C)c2cc(C(=O)NCC3CCN(Cc4ccc(Cl)cc4)CC3)ccc21` [Compound 9m, N-((1–(4-chlorobenzyl)piperidin-4-yl)methyl)-1,3-dimethyl-2-oxo-2,3-dihydro-1H-benzo[d]imidazole-5-carboxamide] was run?
A: 49.9%

Q: What about the “fold increase of inhibitory activity towards AChE compared to 9a” value ([2]; eeAChE) of the same compound?
A: 15 fold

Q: And the IC50 [2, 3]?
A: 0.21 ± 0.03 µM

Q: What does the source list for `Cn1c(=O)n(C)c2cc(C(=O)NCC3CCN(Cc4ccccc4Br)CC3)ccc21` [Compound 9n, N-((1–(2-bromobenzyl)piperidin-4-yl)methyl)-1,3-dimethyl-2-oxo-2,3-dihydro-1H-benzo[d]imidazole-5-carboxamide]?
A: inhibition at 100 µM ([1]; eqBChE): 43.5%; IC50 [2, 3]: 8.87 ± 4.56 µM

Q: What does the source list for `Cn1c(=O)n(C)c2cc(C(=O)NCC3CCN(Cc4cccc(Br)c4)CC3)ccc21` [Compound 9o, N-((1–(3-bromobenzyl)piperidin-4-yl)methyl)-1,3-dimethyl-2-oxo-2,3-dihydro-1H-benzo[d]imidazole-5-carboxamide]?
A: inhibition at 100 µM ([1]; eqBChE): 42.8%; IC50 [2, 3]: 3.69 ± 1.83 µM

Q: For `Cn1c(=O)n(C)c2cc(C(=O)NCC3CCN(Cc4ccc(Br)cc4)CC3)ccc21` [Compound 9p, N-((1–(4-bromobenzyl)piperidin-4-yl)methyl)-1,3-dimethyl-2-oxo-2,3-dihydro-1H-benzo[d]imidazole-5-carboxamide], which inhibition at 100 µM ([1]; eqBChE) is on record?
A: 38.5%

Q: And the IC50 [2, 3]?
A: 11.1 ± 6.42 µM

Q: What does the source list for `COc1ccc(CN2CCC(CNC(=O)c3ccc4[nH]ccc4c3)CC2)cc1` [Compound 11a, N-((1–(4-methoxybenzyl)piperidin-4-yl)methyl)-1H-indole-5-carboxamide]?
A: IC50 [1]: 10.8 ± 5.55 µM; IC50 [2]: 38.1 ± 12.8 µM; SI (selectivity index = AChE IC50/BChE IC50) [2]: 3.54

Q: How did the inhibition at 100 µM ([1]; eqBChE) turn out when `COc1ccc(CN2CCC(CNC(=O)c3ccc4[nH]ncc4c3)CC2)cc1` [Compound 11b, N-((1–(4-methoxybenzyl)piperidin-4-yl)methyl)-1H-indazole-5-carboxamide] was run?
A: 44.6%

Q: And the inhibition at 100 µM [2]?
A: 48.6%

Q: What does the source list for `O=C(NCC1CCN(Cc2ccccc2Cl)CC1)c1ccc2[nH]ncc2c1` [Compound 11c, N-((1–(2-chlorobenzyl)piperidin-4-yl)methyl)-1H-indazole-5-carboxamide]?
A: IC50 [1]: 21.3 ± 5 µM; IC50 [2]: 5.44 ± 2.22 µM; SI (selectivity index = AChE IC50/BChE IC50) [2]: 0.26

Q: What does the source list for `COc1ccc(CN2CCC(CNC(=O)c3ccc4[nH]cnc4c3)CC2)cc1` [Compound 11d, N-((1–(4-methoxybenzyl)piperidin-4-yl)methyl)-1H-benzo[d]imidazole-5-carboxamide]?
A: inhibition at 100 µM ([1]; eqBChE): 16.5%; inhibition at 100 µM [2]: 18.8%

Q: Which results are given for `O=C(NCC1CCN(Cc2ccccc2Cl)CC1)c1ccc2[nH]cnc2c1` [Compound 11e, N-((1–(2-chlorobenzyl)piperidin-4-yl)methyl)-1H-benzo[d]imidazole-5-carboxamide]?
A: inhibition at 100 µM ([1]; eqBChE): 42.1%; IC50 [2]: 7.48 ± 3.1 µM

Q: How did the inhibition at 100 µM ([1]; eqBChE) turn out when `O=C(NCC1CCN(Cc2ccccc2)CC1)c1ccc2[nH]nnc2c1` [Compound 11f, N-((1-benzylpiperidin-4-yl)methyl)-1H-benzo[d][1,2,3]triazole-5-carboxamide] was run?
A: 43.1%

Q: What about the IC50 [2] of the same compound?
A: 0.46 ± 0.4 µM

Q: With `Cn1c(=O)n(C)c2cc(S(=O)(=O)NCC3CCN(Cc4ccccc4)CC3)ccc21` [Compound 15a, N-((1-benzylpiperidin-4-yl)methyl)-1,3-dimethyl-2-oxo-2,3-dihydro-1H-benzo[d]imidazole-5-sulphonamide] as the compound, how does the IC50 [1, 4] read?
A: 0.45 ± 0.02 µM

Q: What about the “SI (selectivity index = AChE IC50/BChE IC50)” value [2] of the same compound?
A: 0.84

Q: What about the IC50 [2, 3] of the same compound?
A: 0.38 ± 0.08 µM

Q: What does the source list for `Cc1cccc(CN2CCC(CNS(=O)(=O)c3ccc4c(c3)n(C)c(=O)n4C)CC2)c1` [Compound 15c, 1,3-dimethyl-N-((1–(3-methylbenzyl)piperidin-4-yl)methyl)-2-oxo-2,3-dihydro-1H-benzo[d]imidazole-5-sulphonamide]?
A: IC50 [1, 4]: 0.47 ± 0.17 µM; SI (selectivity index = AChE IC50/BChE IC50) [2]: 1.14; IC50 [2, 3]: 0.54 ± 0.14 µM

Q: `Cc1ccc(CN2CCC(CNS(=O)(=O)c3ccc4c(c3)n(C)c(=O)n4C)CC2)cc1` [Compound 15d, 1,3-dimethyl-N-((1–(4-methylbenzyl)piperidin-4-yl)methyl)-2-oxo-2,3-dihydro-1H-benzo[d]imidazole-5-sulphonamide] was tested. Which IC50 [1, 4] did it give?
A: 100 ± 22.1 µM

Q: And the “SI (selectivity index = AChE IC50/BChE IC50)” value [2]?
A: 0.24

Q: What about the IC50 [2, 3] of the same compound?
A: 24.8 ± 3.48 µM

Q: With `COc1cccc(CN2CCC(CNS(=O)(=O)c3ccc4c(c3)n(C)c(=O)n4C)CC2)c1` [Compound 15e, N-((1–(3-methoxybenzyl)piperidin-4-yl)methyl)-1,3-dimethyl-2-oxo-2,3-dihydro-1H-benzo[d]imidazole-5-sulphonamide] as the compound, how does the IC50 [1, 4] read?
A: 20.3 ± 3.08 µM

Q: What about the “SI (selectivity index = AChE IC50/BChE IC50)” value [2] of the same compound?
A: 0.45

Q: What about the IC50 [2, 3] of the same compound?
A: 9.35 ± 2.32 µM

Q: Which results are given for `Cn1c(=O)n(C)c2cc(S(=O)(=O)NCC3CCN(Cc4cccc(F)c4)CC3)ccc21` [Compound 15f, N-((1–(3-fluorobenzyl)piperidin-4-yl)methyl)-1,3-dimethyl-2-oxo-2,3-dihydro-1H-benzo[d]imidazole-5-sulphonamide]?
A: IC50 [1, 4]: 1.37 ± 0.74 µM; SI (selectivity index = AChE IC50/BChE IC50) [2]: 0.75; IC50 [2, 3]: 1.04 ± 0.48 µM
